PMC11845477, “Exploring the principles behind antibiotics with limited resistance” (Nature Communications, 2025)

Test system: E. coli ATCC 25922 (SEN) and E. coli NCTC13846 (MDR)
Experiment: Adaptive laboratory evolution (ALE), relative MIC of evolved lines
Format: cell-based, Escherichia coli
Details: for Relative MIC (log10): EC-SEN (Escherichia coli ATCC 25922)
Description: Using the same set of bacterial strains, we initiated adaptive laboratory evolution with the aim to maximize the level of antibiotic resistance in the populations achieved during a longer, but fixed time period.
An established protocol for adaptive laboratory evolution[46],[73] was followed to propagate populations with the highest resistance levels. Starting with an antibiotic concentration that caused approximately 50% growth inhibition, ten parallel populations for each antibiotic-ancestor strain combination were grown for 72 hours at 37 °C with continuous shaking (300 RPM). MHB broth medium was used unless stated otherwise. After each incubation, 20 µl of each culture was transferred to four new wells containing fresh medium with increasing antibiotic concentrations (0.5×, 1×, 1.5×, and 2.5× the previous concentration) in a chessboard layout to monitor potential cross-contamination. Growth was monitored by measuring OD600 using a Biotek Synergy 2 microplate reader, and only populations grown in the highest drug concentration with an OD600 > 0.2 were transferred further.
A robotic liquid handling system was used to automatically prepare a 11 to 16-step serial dilution in 384-well microtiter plates (Greiner). A final concentration of 5 × 10^5 bacterial cells per mL were inoculated into each well containing 60 µL MHB medium. Bacterial cultures were incubated at 37 °C with continuous shaking (Infors shaker, 900 rpm with 3 mm throw) for 18 hours (2 replicates from each). Cell growth was monitored by measuring the optical density (OD600 values, using Biotek Synergy microplate reader). MIC was defined as the antibiotic concentration of complete growth inhibition (i.e., OD600 < 0.05). Relative MIC was calculated as follows:1 relativeMIC=MICevolved/MICancestor […]
Supplementary Figure 4. Resistance levels following adaptive laboratory evolution across bacterial strains. The level of resistance was measured as the fold change in relative MIC between evolved and ancestral strains after ~60 days of adaptive laboratory evolution. Data are grouped by bacterial strain (A. baumannii (AB), E. coli (EC), K. pneumoniae (KP), and P. aeruginosa (PA)) and categorized as either multidrug-resistant (MDR) or sensitive (SEN). Each data point represents a laboratory evolved line, and boxplots show the median, first and third quartiles, with whiskers indicating the 5th and 95th percentiles.
Statistical analysis was performed using two-sided Dunn’s post-hoc test with Benjamini-Hochberg correction for multiple comparisons (****/ ***/ **/ * indicates p < 0.0001/ 0.001/ 0.01/ 0.05). For detailed information on antibiotic and bacterial species, see Supplementary Table 1. For mode of action groups, refer to Table 1. Source data are provided as a Source Data file.
(1 picture or pasted object on this page, not shown here)

C[C@@H]1CN2c3c(cc4c(N5C(=O)OC[C@@H]5C)noc4c3F)CC3(C(=O)NC(=O)NC3=O)[C@H]2[C@H](C)O1 [Zoliflodacin]
Relative MIC (EC-SEN (E. coli ATCC 25922), evolved line 1 vs ancestor): 64 | Relative MIC (EC-SEN (E. coli ATCC 25922), evolved line 2 vs ancestor): 8 | Relative MIC (EC-SEN (E. coli ATCC 25922), evolved line 3 vs ancestor): 128 | Relative MIC (EC-SEN (E. coli ATCC 25922), evolved line 4 vs ancestor): 128 | Relative MIC (EC-SEN (E. coli ATCC 25922), evolved line 5 vs ancestor): 256 | Relative MIC (EC-SEN (E. coli ATCC 25922), evolved line 6 vs ancestor): 32 | Relative MIC (EC-SEN (E. coli ATCC 25922), evolved line 7 vs ancestor): 64 | Relative MIC (EC-SEN (E. coli ATCC 25922), evolved line 8 vs ancestor): 128 | Relative MIC (EC-SEN (E. coli ATCC 25922), evolved line 9 vs ancestor): 64 | Relative MIC (EC-SEN (E. coli ATCC 25922), evolved line 10 vs ancestor): 128 | Relative MIC (log10) (evolved line 3): 2.107 log10 | Relative MIC (log10) (evolved line 4): 2.107 log10 | Relative MIC (log10) (evolved line 5): 2.408 log10 | Relative MIC (log10) (evolved line 8): 2.107 log10 | Relative MIC (log10) (evolved line 10): 2.107 log10 | Relative MIC (Escherichia coli ATCC 25922 (EC-SEN), evolved line 1): 64 | Relative MIC (Escherichia coli ATCC 25922 (EC-SEN), evolved line 2): 8 | Relative MIC (Escherichia coli ATCC 25922 (EC-SEN), evolved line 3): 128 | Relative MIC (Escherichia coli ATCC 25922 (EC-SEN), evolved line 4): 128 | Relative MIC (Escherichia coli ATCC 25922 (EC-SEN), evolved line 5): 256 | Relative MIC (Escherichia coli ATCC 25922 (EC-SEN), evolved line 6): 32 | Relative MIC (Escherichia coli ATCC 25922 (EC-SEN), evolved line 7): 64 | Relative MIC (Escherichia coli ATCC 25922 (EC-SEN), evolved line 8): 128 | Relative MIC (Escherichia coli ATCC 25922 (EC-SEN), evolved line 9): 64 | Relative MIC (Escherichia coli ATCC 25922 (EC-SEN), evolved line 10): 128

Tridecaptin M152-P3
MIC of evolved line (EC-SEN (E. coli ATCC 25922), evolved line 1 of the given antibiotic): 32 µg/mL | MIC of evolved line (EC-SEN (E. coli ATCC 25922), evolved line 2 of the given antibiotic): 64 µg/mL | MIC of evolved line (EC-SEN (E. coli ATCC 25922), evolved line 3 of the given antibiotic): 32 µg/mL | MIC of evolved line (EC-SEN (E. coli ATCC 25922), evolved line 4 of the given antibiotic): 32 µg/mL | MIC of evolved line (EC-SEN (E. coli ATCC 25922), evolved line 6 of the given antibiotic): 32 µg/mL | MIC of evolved line (EC-SEN (E. coli ATCC 25922), evolved line 7 of the given antibiotic): 32 µg/mL | MIC of evolved line (EC-SEN (E. coli ATCC 25922), evolved line 8 of the given antibiotic): 32 µg/mL | MIC of evolved line (EC-SEN (E. coli ATCC 25922), evolved line 9 of the given antibiotic): 32 µg/mL | MIC of evolved line (EC-SEN (E. coli ATCC 25922), evolved line 10 of the given antibiotic): 64 µg/mL
